Consider five molecules from article PMC11684002 (Journal of medicinal chemistry, 2020).

Data set [1] in a line: Photostationary states. Format: physicochemical. The settings on record: for PSS, % trans-isomer, dark: dark-adapted.
In data set [2] the target is T1, human PPARα ligand binding domain (Gal4 hybrid) (Homo sapiens, UniProt Q07869).
T1 sequence (Q07869 239-466 limits assumed): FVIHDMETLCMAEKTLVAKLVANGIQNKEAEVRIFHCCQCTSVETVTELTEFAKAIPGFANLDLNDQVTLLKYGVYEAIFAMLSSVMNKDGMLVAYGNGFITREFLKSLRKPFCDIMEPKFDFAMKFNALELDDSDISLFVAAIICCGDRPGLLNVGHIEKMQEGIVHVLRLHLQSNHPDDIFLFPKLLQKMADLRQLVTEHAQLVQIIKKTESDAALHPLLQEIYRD
Put plainly: Gal4 hybrid reporter gene assay, PPARα. The conditions noted are these: trans-isomer in the dark, HEK293T.

Data set [3] deals with PPARγ. The settings on record: read-out: PPARγ agonist EC50; cited from earlier work.
Data set [4] relates to human PPAR response element (PPRE), endogenous PPARγ. Description: PPRE reporter gene assay in PPARγ expressing HepG2 cells. Format: cell-based. The settings on record: trans-isomer.
Where [5] appears, read: after 365 nm illumination, CDCl3.
Where [6] appears, read: after 460 nm illumination, CDCl3.

As for `O=C1NC(=O)C(Cc2ccc(/N=N/c3ccccc3)cc2)S1` (stereo not shown) [AzoRosi, (E)-5-(4-(phenyldiazenyl)benzyl)thiazolidine-2,4-dione], the “PSS, % trans-isomer, 365 nm” value in data set [1] (setting [5]) came out at 4%. In addition, the “PSS, % trans-isomer, 460 nm” value in data set [1] (setting [6]) is on record as 80%. In data set [1] (CDCl3), the “PSS, % trans-isomer, dark” value was determined as 100%. Besides, in data set [2], the “PPARα activation at 10 μM” value amounted to 8% activation at 10 μM.
The term EC50 denotes the concentration giving half of the maximal effect. With `O=C1NC(=S)NC(=O)C1=Cc1ccc(OCc2ccccc2)c(Cl)c1` [MDG548], the EC50 in data set [3] is 0.215 µM.
On to `O=C(c1ccccc1)c1ccccc1N[C@@H](Cc1ccc(/N=N/c2ccccc2)cc1)C(=O)O` [AzoGW1929, (S,E)-2-((2-benzoylphenyl)amino)-3-(4-(phenyldiazenyl)phenyl)propanoic acid], for which, in data set [1] (after 365 nm illumination for five minutes, MeOD-d4), the “PSS, % trans-isomer, 365 nm” value was determined as 67%. Also, the “PSS, % trans-isomer, 460 nm” value in data set [1] (after 460 nm illumination for five minutes, MeOD-d4) is listed as 76%. For the same molecule, in data set [1] (MeOD-d4), the “PSS, % trans-isomer, dark” value is listed as 95%.
With `Cc1ccccc1-c1ccc(/N=N/c2ccc(CC3SC(=O)NC3=O)cc2)cc1` (stereo not shown) [AzoRosi-4, (E)-5-(4-((2′-methyl-[1,1′-biphenyl]-4-yl)diazenyl)benzyl)thiazolidine-2,4-dione], the “PPRE activation at 10 μM” value in data set [4] is reported as “some PPRE activation was observed”. The “PSS, % trans-isomer, 365 nm” value in data set [1] (setting [5]) is given as 23%. Further, the “PSS, % trans-isomer, 460 nm” value in data set [1] (setting [6]) turned out to be 83%. For the same molecule, the “PSS, % trans-isomer, dark” value in data set [1] (CDCl3) came to 99%.
`CN(CCOc1ccc(CC2SC(=O)NC2=O)cc1)c1ccccn1` (stereo not shown) [Rosiglitazone]: the EC50 in data set [3] was […].
